Like-named read-outs stand apart in the source and are kept apart here. Marks after values point to notes of the source that are not given here.
Legend:
[1] = system: HT29 cells; assay: In vitro metabolomics, HT29 cells; type: cell-based; conditions: 24 and 96 hours exposure to 30nM RAD001
Protocol: Metabolomics was performed in vitro on HCT116
(KRAS mt; PIK3CA mt) and HT29 (BRAF mt;
PIK3CA mt) cells after 0 (control), 24 and 96 hours exposure to 30nM RAD001. In both cell lines after 24 and 96 hours glucose uptake was reduced showing a decrease in proliferation. […]

[2] = Human, cited from earlier work
[3] = system: HCT116 cells; assay: Sulforhodamine B (SRB) anti-proliferation assay, HCT116; type: cell-based
Protocol: (§1) Cytoxic effects were determined using the sulforhodamine B (SRB) assay. Briefly, 5000 viable cells were plated into 96-well plates and incubated overnight prior to exposure with different concentrations of drugs. Cells were exposed to increasing concentrations of everolimus (0–200 nM), SN38 (0–8 nM), and combinations of the two. Following a 72 hour incubation, media was removed and cells were fixed with cold 10% trichloroacetic acid for 30 minutes at 4° C. Cells were washed with water and stained with 0.4% SRB for 30 minutes at room temperature. Cells were washed again with 1% acetic acid and stain was solubilized with 10 mM tris at room temperature and read at an OD of 565 nm. […] The resulting Combination Index (CI) was used as a quantitative measure of the degree of interaction between different drugs. A CI value equal to 1 denotes additivity; CI greater than 1, antagonism; CI less than 1, synergism.

[4] = Simulation of everolimus plasma concentrations at 5 mg/kg (two-compartment model); design: species or system mice
Protocol: Plasma and tumor pharmacokinetic parameters were calculated by noncompartmental analysis with WinNonlin. Everolimus plasma data was fit to a two-compartment model with first-order absorption and simulations of plasma concentrations at a 5 mg/kg dose of everolimus were performed by SAAM II version 2.1 (The Epsilon Group, Charlottesville, VA/University of Washington).
Everolimus [nmol/g tissue] […]
Everolimus plasma (A) and tumor (B) pharmacokinetics were measured in nude mice bearing HT29 xenografts.
10 (●) mg/kg everolimus daily for 7 days prior to sample collection.
Data represents the average of 3 samples and the lines represent the data fits to a two-compartment model with first-order absorption. The parameter estimates from the fits to the 2.5 and 10 mg/kg data were then used to simulate the steady-state dosing of 5 mg/kg RAD001 (C).
Simulations were generated based on daily dosing. Additional details of the study can be found in the main text.
To simulate data at different concentrations between 2.5 and 10 mg/kg the following assumptions were made; (1) everolimus absorption and its’ elimination from the central compartment is constant across dose levels, and (2) the volume of the central compartment varies linearly between doses. We believe these assumptions are valid since the pharmacokinetics appeared to be linear between 2.5 and 10 mg/kg doses, and the model fits the measured data at 2.5 and 10 mg/kg doses well and agrees with pharmacokinetic parameters estimated by non-compartmental analysis (Table S1). […]

[5] = system: HCT116 tumors; assay: NMR-based metabolomics of HCT116 tumors; type: in vivo, mice; conditions: end of study
Protocol: (§2) When HT29 and HCT116 tumors reached an average volume of ∼325 mm^3 animals were randomized into four treatment groups (n = 9–10 mice per group): (i) vehicles, (ii) 5 mg/kg everolimus (RAD) by oral gavage (PO) daily, (iii) 10 mg/kg irinotecan (IRI) once weekly by intravenous (iv) tail vein injection, and (iv) a combination of RAD and IRI. Everolimus, diluted in sterile water, and irinotecan, diluted in sterile 0.9% saline, were administered at 4 mL/kg. Animals were treated for 28 days. Tumor volumes and body weights were measured 2–3 times weekly. On day 28 of treatment 3–6 animals per group were sacrificed, approximately 24 hours following everolimus treatment, and tumors harvested for metabolomic analysis.
(§3) For metabolomic analysis, animals were fasted for 4 hours then received 250 mg/kg of [1-^13C] glucose (Cambridge Isotopes, Cambridge, MA) by IV injection 60 minutes prior to tumor harvesting. Snap-frozen tumor specimens underwent two-phase acid extraction procedure (using 8% perchloric acid) previously established and extensively published [19]–[22]. Further details may also be found in Supplement S1 (section SA.2.).

[6] = system: HT29 tumors; assay: NMR-based metabolomics of HT29 tumors; type: in vivo, mice; conditions: end of study
Protocol: as §2, §3

[7] = Human pharmacokinetics of everolimus from the literature; type: in vivo; conditions: humans at the clinically used doses of 5 to 10 mg per day; 75% plasma protein binding used; from data of ref 25, 26
Source text: For in vivo studies, we established doses of everolimus and irinotecan to administer to mice that would yield exposures at or below clinically achievable levels. Human pharmacokinetic information on everolimus, [26] and irinotecan/SN38 [27]–[30] was gathered from the literature and is presented in Tables 1 and 2 respectively.

[8] = everolimus, mice; cited from earlier work
[9] = system: HT29 cells; assay: Sulforhodamine B (SRB) anti-proliferation assay, HT29; type: cell-based
Protocol: as §1

[10] = system: ribosomal phospho-S6 kinase (pS6RP); assay: Western blot, pS6RP in CRC cell lines; type: cell-based; conditions: everolimus 20 nM, 24 hours, all cell lines
Protocol: Cells were seeded into 6-well plates 24 hours prior to treatment with each drug alone or in combination for 24 hours. Cells were scraped into RIPA buffer containing protease inhibitors, EDTA, NaF, and sodium orthovanadate. Total protein was determined using the Pierce 660 nm Protein Assay (Pierce, Rockford, IL). Thirty micrograms of total protein was loaded onto a 4–12% gradient gel, electrophoresed and transferred to nitrocellulose using the iBlot system (Invitrogen, Carlsbad, CA). Membranes were blocked for one hour at room temperature with Licor Blocking Buffer (Licor, Lincoln, NE) prior to overnight incubation at 4°C with one of the following antibodies: pS6RP, tS6RP, pAKT, tAKT, pERK, tERK, p21, PARP, actin and α-tubulin (Cell Signaling, Beverly, MA). All antibodies were used at a 1∶1000 dilution except for pERK, which was used at 1∶2000. Following primary antibody incubation, blots were washed in TBS-Tween(0.1%), then incubated with the appropriate secondary antibody at 1∶15,000 (Licor, Lincoln, NE) for one hour at room temperature. After three additional washes, blots were developed using the Licor Odyssey (Licor, Lincoln, NE).

[11] = 10 mg daily oral, steady-state, ref 25
[12] = everolimus 5 mg/kg dose in mice

## CO[C@H]1C[C@@H]2CC[C@@H](C)[C@@](O)(O2)C(=O)C(=O)N2CCCC[C@H]2C(=O)O[C@H]([C@H](C)C[C@@H]2CC[C@@H](OCCO)[C@H](OC)C2)CC(=O)[C@H](C)/C=C(\C)[C@@H](O)[C@@H](OC)C(=O)[C@H](C)C[C@H](C)/C=C/C=C/C=C/1C [Everolimus, 40-O-(2-hydroxyethyl)-rapamycin]
[1]
  glucose uptake: reduced
[2]; 5 mg daily oral, ref 25
  AUC0→t: 238 ± 77 ng·h/mL
  Cmin: ^†5.4 ng/mL
[2]; 5 mg daily oral, ref 26
  AUC0→t: 543 ± 189 ng·h/mL
[2]; 5 mg daily oral, steady-state, estimated from graph in reference
  Cmin: ∼12–14^bd ng/mL
[2]; 5 mg daily oral, steady-state
  Cmax: 32±9 ^b ng/mL
[2]; 10 mg daily oral, ref 25
  AUC0→t: 514 ± 231 ng·h/mL
[2]; 10 mg daily oral, ref 26
  AUC0→t: 711 ± 113 ng·h/mL
[2]; 10 mg daily oral, steady-state, estimated from graph in reference
  Cmin: ∼20^bd ng/mL
[2]; [11]
  Cmax: 61±17 ^b ng/mL
  Cmin: 13.3 ^b ng/mL
[2]; 10 mg daily oral, steady-state, ref 26
  Cmax: 66±1.4 ^b ng/mL
[3]; HCT116, RAD (20 nM), SN38 (4 nM) or the combination of the two, Figure 2
  %Growth Inhibition: 49%
[3]; Homo sapiens, HCT-116, HCT116 cells
  IC50: 25 nM
[4]; 5 mg/kg in mice, from simulated data
  AUCss,free: 37 ng·h/mL
[4]; [12]
  average free concentration (Css,avg): about 1.5 nM
  free plasma concentration, Cmax: 6 nM
  free plasma concentration, Cmin: 0.2 nM
[5]
  effects on glucose metabolism: decrease in lactate and glycolysis
[6]
  effects on glucose metabolism: decrease in lactate and glycolysis
[7]
  AUCss,free (steady-state free plasma exposure): 60 to 178 ng·h/mL
[8]
  plasma protein binding: 99%
[9]; HT29, RAD (20 nM), SN38 (4 nM) or the combination of the two, Figure 2
  %Growth Inhibition: 74%
[9]; Homo sapiens, HT-29, HT29 cells
  IC50: 1.2 nM
[10]
  effect on ribosomal phospho-S6 kinase (pS6RP): able to inhibit
